Measurements from article PMC8596838, “Xylose‐Configured Cyclophellitols as Selective Inhibitors for Glucocerebrosidase” (Chembiochem, 2021).

What was measured:
GBA = molecular target: T1, GBA (Homo sapiens, UniProt P04062); test: Competitive ABPP (cABPP) with ABP 10 in HEK293T cell lysates, GBA; format: biochemical; conditions: cell lysate, 30 min incubation
T1 construct: HEK293T cells that contain endogenous GBA; endogenous in cells; host or cells: HEK293T (ATCC CRL-3216) overexpressing GBA2 and GBA3
T1 sequence (P04062 40-536): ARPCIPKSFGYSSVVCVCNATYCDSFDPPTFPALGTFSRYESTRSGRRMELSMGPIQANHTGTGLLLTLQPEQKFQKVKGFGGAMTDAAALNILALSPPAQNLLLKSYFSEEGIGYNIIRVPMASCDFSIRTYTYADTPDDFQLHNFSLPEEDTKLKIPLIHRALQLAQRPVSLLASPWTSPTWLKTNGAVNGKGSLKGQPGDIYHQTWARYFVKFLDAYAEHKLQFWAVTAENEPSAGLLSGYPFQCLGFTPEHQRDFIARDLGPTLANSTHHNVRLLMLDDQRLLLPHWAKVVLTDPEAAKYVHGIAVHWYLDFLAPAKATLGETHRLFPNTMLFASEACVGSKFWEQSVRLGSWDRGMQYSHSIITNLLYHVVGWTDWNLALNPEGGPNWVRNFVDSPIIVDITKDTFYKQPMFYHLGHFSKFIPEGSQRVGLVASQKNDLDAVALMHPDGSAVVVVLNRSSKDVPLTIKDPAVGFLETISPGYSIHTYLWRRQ
Experimental: (§1) In the first instance, the inhibitory potency of 1 and 2 for GBA, GBA2, and GBA3 was assessed by competitive activity‐based protein profiling (cABPP). For this, we first generated HEK293T cells that contain endogenous GBA and overexpress human GBA2 and GBA3.
(§2) Figure 3 Selectivity of compounds visualized by competitive ABPP labeling of β‐D‐glucosidase. Lysates of HEK293T cells expressing human GBA, GBA2 and GBA3 were incubated with compounds 1–5 at indicated concentrations for 30 min, following by cABPP with ABP 10.
(§3) ABP labeling procedure: Glycosidases were labeled with excess fluorescent ABPs at optimum conditions. ABP labeling was performed at 37 °C for 30 min for all materials (if not otherwise stated), in a total sample volume of 20–40 μL and 0.5–1 % DMSO concentration. GBA was labeled with 200 nM ABP 9 (pH 5.2, 0.1 % (v/v) Triton‐100, 0.2 % (w/v) sodium taurocholate), or labeled together with GBA2 using 200 nM β‐D‐glucose‐configured aziridine ABP 10 at pH 5.8, or labeling together with GBA2 and GBA3 using 200 nM β‐D‐glucose‐configured aziridine ABP 10 at pH 6.0. After ABP incubation, proteins were denatured by boiling the samples with 5× Laemmli buffer (50 % (v/v) 1 M Tris‐HCl, pH 6.8, 50 % (v/v) 100 % glycerol, 10 % (w/v) DTT, 10 % (w/v) SDS, 0.01 % (w/v) bromophenol blue) for 5 min at 98 °C, and separated by electrophoresis on 10 % (w/v) SDS‐PAGE gels running continuously at 90 V. Wet slab‐gels were scanned on fluorescence using the Typhoon FLA 9500 (GE Healthcare) at λEX 473 nm and λEM≥510 nm for green fluorescent ABP 8; and at λEX 635 nm and λEM≥665 nm for ABP 6, 9 and 10. ABP‐emitted fluorescence was quantified using ImageQuant software (GE Healthcare, Chicago, IL, USA) and curve‐fitted using Prism 8.0 (GraphPad Software). After fluorescence scanning, SDS‐PAGE gels were stained for total protein with Coomassie G250 and scanned on a ChemiDoc MP imager (Bio‐Rad, Hercules, CA, USA).[25]

GBA2 = molecular target: T2, GBA2 (Homo sapiens, UniProt Q9HCG7); test: Competitive ABPP (cABPP) with ABP 10 in HEK293T cell lysates, GBA2; format: biochemical; conditions: cell lysate, 30 min incubation
T2 construct: expressed in transfected cells; host or cells: HEK293T (GBA/GBA2 KO background for the fluorogenic assay; endogenous-GBA background with GBA2 and GBA3 overexpressed for ABPP and intact-cell assays)
T2 sequence (Q9HCG7 1-927): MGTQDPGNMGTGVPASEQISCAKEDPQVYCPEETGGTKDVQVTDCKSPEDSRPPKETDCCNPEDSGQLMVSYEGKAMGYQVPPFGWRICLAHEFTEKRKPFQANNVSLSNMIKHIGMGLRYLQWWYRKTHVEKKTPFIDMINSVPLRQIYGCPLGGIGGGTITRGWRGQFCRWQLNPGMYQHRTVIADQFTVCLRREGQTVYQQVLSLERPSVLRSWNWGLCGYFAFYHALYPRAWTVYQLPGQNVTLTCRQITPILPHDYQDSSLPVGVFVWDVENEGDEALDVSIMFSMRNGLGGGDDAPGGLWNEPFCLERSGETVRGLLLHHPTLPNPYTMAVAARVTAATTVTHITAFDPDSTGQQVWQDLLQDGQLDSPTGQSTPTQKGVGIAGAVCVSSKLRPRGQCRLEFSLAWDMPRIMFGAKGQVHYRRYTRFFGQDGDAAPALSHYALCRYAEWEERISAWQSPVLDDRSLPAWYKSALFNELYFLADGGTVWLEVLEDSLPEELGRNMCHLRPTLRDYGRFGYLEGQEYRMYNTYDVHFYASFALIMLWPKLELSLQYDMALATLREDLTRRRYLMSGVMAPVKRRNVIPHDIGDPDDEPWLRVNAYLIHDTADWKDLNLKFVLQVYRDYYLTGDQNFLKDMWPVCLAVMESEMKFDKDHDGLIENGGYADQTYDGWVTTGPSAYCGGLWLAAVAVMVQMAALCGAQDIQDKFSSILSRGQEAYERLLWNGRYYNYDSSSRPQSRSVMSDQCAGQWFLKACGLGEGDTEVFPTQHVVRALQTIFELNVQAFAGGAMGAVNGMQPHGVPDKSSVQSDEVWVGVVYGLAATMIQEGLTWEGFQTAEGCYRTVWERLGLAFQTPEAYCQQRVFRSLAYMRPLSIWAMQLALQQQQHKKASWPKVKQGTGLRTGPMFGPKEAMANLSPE
Experimental: as §1, §2, §3

Structure (SMILES)	concentration competing ABP 10 labeling of GBA (GBA)	competition of ABP 10 labeling of GBA2 (GBA2)	concentration competing ABP 10 labeling of GBA2 (GBA2)	competition of ABP 10 labeling of GBA (GBA)
O[C@@H]1[C@@H](O)[C@H](O)C[C@H]2O[C@@H]12 [compound 1, xylo‐cyclophellitol]	10 to 100 µM	but not that of GBA2 or GBA3	–	–
O[C@@H]1[C@@H](O)[C@H](O)C[C@H]2N[C@@H]12 [compound 2, β‐D‐xylo‐Cyclophellitol aziridine]	1 to 10 µM	–	100 µM	–
OC[C@@H]1[C@@H](O)[C@H](O)[C@@H](O)[C@@H]2O[C@H]12 [compound 3, cyclophellitol]	0.1 to 1 µM	–	0.1 to 1 µM	–
OC[C@@H]1[C@@H](O)[C@H](O)[C@@H](O)[C@@H]2N[C@H]12 [compound 4, cyclophellitol aziridine, reference compound]	0.1 to 1 µM	–	0.1 to 1 µM	–
[N-]=[N+]=NCCCCCCCCN1[C@H]2[C@H](O)[C@@H](O)[C@H](O)C[C@H]21 (stereo partly drawn) [compound 5]	–	–	–	greatly enhances inhibitory potency
